Experimental data taken from ChEMBL document CHEMBL3507680, “University of Dundee, Gates Library screen for HepG2 cell viability”.

Experiment: Human HepG2 cell viability assay in 384 well format
Assay type: toxicity, cell-based
Set-up: dose 125 nL, time 70.5 hour; cytotoxicity at 70.5 h: concentration not given beside the values
Settings: HepG2 cells, read-out: Inhibition

SMILES | cytotoxicity at 70.5 h [%]
CN(C)S(=O)(=O)N1CCC(Oc2ccc(C#N)cc2)CC1 | -4.56
CCc1nc(CC(=O)NC(C#N)CC)cs1 (configuration not stated) | -0.988
O[C@H]1CC[C@@H](Cc2cc(-c3ccccc3)on2)O[C@@H]1CNCC1CC1 | -5.25
Cc1ccoc1C(=O)NC1CCN(Cc2csc3c(F)cccc23)CC1 | 18.8
O=C1CCOC[C@]2(CN(Cc3ccccc3)C[C@H]2c2ccccc2)N1 | 26.7
CC(=O)Nc1nc(CN2CCOC(Cn3cc(C)cn3)C2)cs1 (configuration not stated) | -7.56
CN(CCC(F)(F)F)C(=O)[C@H]1CSCN1C(=O)OC(C)(C)C | -1.73
CN(C)C(CNS(=O)(=O)c1ccc(F)cc1F)c1cccn1C (configuration not stated) | -13.1
Cc1ncc(CN2C[C@H]3C[C@H](OCc4ccccc4)C[C@H]3C2)cn1 | -6.93
CC(C)[C@@H]1CN(Cc2ccsc2)C[C@H]1NS(=O)(=O)N(C)C | 1.27
O=C(N1CCCC1)N1CCc2ncnc(C3CCOC3)c2CC1 (configuration not stated) | -9.08
F[C@@H]1CN(CC2CC2)C[C@@H]1OCc1nc2cnccc2[nH]1 | -0.16
N#Cc1cccnc1N1CCCN(CC(=O)N2CCNC(=O)C2)CC1 | -5.07
O=C(Cc1ccccc1)NCc1ccc(-c2ccccc2C(=O)O)cn1 | 1.3
O=C(c1ccoc1)N1CCC2(CC1)C(=O)N(CC1CC1)c1ccccc12 | -2.01
CCc1ccc(C(=O)N2CCC(c3nncn3CC)CC2)cc1 | 33.4
COC(=O)c1ccc(OC)c(Cn2cc(Br)cn2)c1 | -16.7
CCOCCCn1c(NC(=O)c2scnc2C)nc2ccccc21 | 30.8
Nc1ncnc2[nH]c(N3CCCCC3)nc12 | -6.41
CN(C)S(=O)(=O)N1C[C@@H](OCc2ccccn2)[C@H]2OCCC[C@H]21 | -3.83
CN(CCn1cnnc1)C(=O)c1ccnc(OC2CCC2)c1 | 16.2
COCc1noc(-c2ccc(N3CCCCC3CO)nc2)n1 (configuration not stated) | -6.84
NC(=O)Nc1cc(Br)cnc1OCC(F)(F)F | -7.02

SMILES | cytotoxicity at 70.5 h [%]
CS(=O)(=O)N1CCC(NC(=O)COc2cccc(Cl)c2)CC1 | 1.43
CC(Cn1ccnc1)NS(=O)(=O)c1ccc(F)c(Cl)c1 (configuration not stated) | -1.84
CS(=O)(=O)NCCn1ccc(-c2cccs2)n1 | -6.85
O=C(O)c1ccc(N2CCC(Cc3ccccc3)CC2)nn1 | -1.14
Cc1ncc(C(=O)NCCOc2ccccc2F)c(C)n1 | 7.2
CNc1nc(CNC(=O)Nc2cccc(-n3ccc(C)n3)c2)cs1 | 0.812
Cc1cc(-n2cncn2)ccc1C(=O)N(CC(F)(F)F)C(C)C | -7.81
Cc1ccc(CN2CCn3c(CN(C)C(C)C)cnc3C2)s1 | -6.07
COc1ccc2c(c1)c(C(=O)Nc1nnn[nH]1)cn2C(C)C | 24.1
Cc1nc(C)n(C2CCCN(C(=O)COc3cccc(C#N)c3)C2)n1 (configuration not stated) | -20.2
Cc1ccc(S(=O)(=O)NC[C@H]2OC[C@@H](NCc3ccccn3)[C@@H]2O)cc1 | -6.39
COCCSCC(=O)NCc1ccc(N(C)C)cc1 | -0.963
CSCc1noc(Cn2ncn3cccc3c2=O)n1 | -3.25
CCOC1CCN(C(=O)c2cnn(-c3ccccc3Cl)c2)CC1 | 2.04
CN(CC(F)F)C(=O)c1cn(-c2ccc(Br)cc2)cn1 | 3.66
COCCN1CCOCC12CCN(C(=O)Cc1cccs1)CC2 | -6.94
CCOc1ccc(NC(=O)c2cc3c([nH]c2=O)CCC3)cc1 | -13.3
CCCOc1ccc(CNc2cncc(-n3cccn3)n2)cc1 | -6.6
O=C(C1CCN(c2nc3nc[nH]c(=O)c3s2)CC1)N1CCCCC1 | -15.6
CCCn1ncc(C2CC(=O)NCc3nc4cc(C)ccn4c32)c1C (configuration not stated) | 2.43
O=C([C@@H]1CCCO1)N1CCn2c(Cn3cccn3)cnc2C1 | -0.354
COc1cc(CC(O)CC#N)c(OC)c2c1OCO2 (configuration not stated) | -9.38
Cc1ccc(C(=O)NCCN2CCOCC2)c(=O)[nH]1 | -11.5

SMILES | cytotoxicity at 70.5 h [%]
Cc1nc[nH]c1CN1CCCC(CNC(=O)c2ccc(N)nc2)C1 (configuration not stated) | -6.47
O=C(c1ccno1)N1CC2(CCC(C(=O)N3CCCC3)O2)C1 (configuration not stated) | -14.7
Cc1nc(C)c(CC(=O)N2C[C@H]3CC[C@@H]2CN(C(=O)N(C)C)C3)c(=O)[nH]1 | 15.9
Cc1c(C(=O)N2CCN(C)CC2)n(C)c2ccc(Cl)cc12 | -11.7
Cc1nc(C(C)NC(=O)COc2ccc(F)cc2)n[nH]1 (configuration not stated) | -7.22
COc1ncnc(N)c1CNCCc1ccc(-n2cccn2)cc1 | -1.5
CCCS(=O)(=O)N1CCC(NC(=O)c2cc(C)c(CC)s2)CC1 | -12.1
CC(NC(=O)c1cc(-c2cccc(Cl)c2)no1)C(=O)N(C)C (configuration not stated) | -17.3
NCc1cnn(-c2ccccc2C(=O)NCc2ccccc2Cl)c1 | -2.58
Cc1ccc(C2CN(CCS(C)(=O)=O)CCO2)c(C)c1 (configuration not stated) | -12.5
COCC1CC2(CCN(CC3CC3)CC2)CN1c1ncccn1 (configuration not stated) | -3.59
CC[C@@]1(O)CCN(C(=O)CN(C)Cc2ccc(F)cc2)C[C@H]1O | 17.3
O=C(Cc1cccc(F)c1)N1CCn2cc(Cn3cccn3)nc2C1 | -10.7
COC(=O)c1cc(OCC2CCC2)cc(C(=O)N[C@@H]2CNCC[C@H]2O)c1 | 19.4
O=C(c1ccc(-n2cccn2)nc1)N1CCC(c2ccc(O)cc2)CC1 | -5.83
CC(C)N(C)S(=O)(=O)N(Cc1cccs1)CC1CCCO1 (configuration not stated) | 37.4
O=C(CS(=O)(=O)Cc1ccccc1)NC1CCCCNC1=O (configuration not stated) | 12.6
Cc1cc(NCc2cc(C)oc2C(F)(F)F)n2nc(C)cc2n1 | -2.81
Cc1n[nH]c(C)c1Sc1ccccc1NC(=O)CN1CCCC1 | -3.41
CCN1C(=O)C(C)(C)c2cc(NC(=O)c3ccn(CC)n3)ccc21 | -19.5
Cc1nc(C(=O)N2CCN(C(=O)N(C)C)[C@@H]3CS(=O)(=O)C[C@@H]32)cs1 | -5.31
CC(C)N1CCN(C(=O)c2csc3nc(-c4ccc(Cl)cc4)cn23)CC1 | -16.3
CN(CC(C)(CO)CO)C(=O)Nc1cc(F)cc(Cl)c1 | -6.37

SMILES | cytotoxicity at 70.5 h [%]
Cc1ccc(CC(=O)N2CCCC(c3cc(C)[nH]n3)C2)cn1 (configuration not stated) | -7.57
CCSc1ccc(C(=O)N2CC[C@](O)(CC)[C@H](O)C2)s1 | 22.5
O=C(c1c[nH]cn1)N1CCCn2c(CN3CCCCC3)nnc2C1 | -1.43
Cc1cc(S(=O)(=O)N2CCCc3cc(Cl)ccc32)sc1C(=O)O | 2.62
CN1CC2(CCN(C(=O)c3[nH]cnc3-c3ccccc3)C2)OC1=O (configuration not stated) | -3.76
CCOC(=O)CCC(=O)N1CCC(CSCc2ccco2)CC1 | -12
Cc1cc(CNc2cc(Cl)ccc2Cl)no1 | -14.1
Cc1cc2c(cc1Cl)C=CC1(CCN(CC(=O)N3CCCC3)CC1)O2 | 2.51
O=C(NCC1CC1)c1cc2c(s1)CCN2C(=O)c1ccc(F)cc1 | -9.03
Cc1cc(C(=O)O)c2c(Br)cccc2n1 | -13.5
CN(C)Cc1ccc(NC(=O)c2nccn3ccnc23)cc1 | -4.61
Cc1ccc(C)c(NC(=O)N2CCC3(CC2)NC(=O)CC3C(=O)O)c1 (configuration not stated) | -2.48
CNC(=O)CN(C(=O)c1ccc(SC)o1)c1cccc(F)c1 | -0.365
CCn1ccnc1CN1CCN(C(C)C(=O)N2CCC(C)CC2)CC1 (configuration not stated) | 3.72
COCC1c2c(cnn2CC2CC2)CCN1Cc1cc(C)on1 (configuration not stated) | -12.7
CCc1nc(C2CCCN2C(=O)c2cnns2)no1 (configuration not stated) | -8.27
O=C(NCc1nnnn1-c1ccccc1)c1ccc(C2CCCO2)s1 (configuration not stated) | -4.49
O=C(NCC(c1ccc(F)cc1)N1CCOCC1)Nc1cn[nH]c1 (configuration not stated) | 18.9
CCOCCCNc1nc(O)cc(C2CC(=O)N(C)C2)n1 (configuration not stated) | 24.8
N#Cc1ccc(CN2CCCC3(Cc4ccccc4CNC3=O)C2)cc1 (configuration not stated) | 31.4
Fc1ccc(CN2CCCCC2Cn2cncn2)c2ncccc12 (configuration not stated) | 25.5
CC(C)CNC(=O)CC1OCCc2ccsc21 (configuration not stated) | -7.58
O=C(NCc1cccs1)C1CN(C(=O)c2cccs2)CC12CCOCC2 (configuration not stated) | -8.67

SMILES | cytotoxicity at 70.5 h [%]
CN1CC(=O)N(c2ccccc2)CC12CCN(C(=O)c1ccnnc1)C2 (configuration not stated) | 24.2
Cc1nn(C)c(N2CCOCC2)c1CNC1CCN(C(C)(C)C)CC1 | 1.66
CC(C)NC(=O)N1CCC2(CCC(=O)N2CCN2CCCC2)CC1 | -9.28
CC(C)N1[C@H](CN2CCCC2)C[C@@H]2CN(Cc3cnn(C)c3)CC[C@@H]21 | -10.1
Cc1nn(C)c2c(=O)n(CC(=O)NCc3ccc(N(C)C)cc3)ccc12 | -0.296
Cc1cc2cc(CNC3CCN(CC4CCOC4)CC3)oc2cc1C (configuration not stated) | 10.8
Cc1noc(C2CCCN(C(=O)c3cc(Cl)cn3C)C2)n1 (configuration not stated) | -4.77
COc1ccc(CN2C[C@H](N3CCCC3=O)[C@@H]3OCCC[C@@H]32)cc1 | -7
c1cnc(N2CCC3(CCN(CC4CCOCC4)CC3)C2)nc1 | 0.659
Cc1cc(N2CCN(C(=O)CCc3scnc3C)CC2)nc(N)n1 | 18.7
COC(=O)CN(C(=O)c1ccc(Cl)o1)c1cccc(F)c1 | -11.3
O=c1c(C(F)(F)F)cccn1Cc1nnc(-c2cccnc2)o1 | -0.729
COc1ccc(Cl)cc1CC(=O)N1CCN(CC(C)(C)O)CC1 | -3.48
CCSc1ncc(CN2C[C@H]3CC[C@@H]2CN(C2CCOCC2)C3)cn1 | -7.51
OC(CN1CCN(Cc2cc(F)ccc2F)CC1)C1CC1 (configuration not stated) | 0.724
Cc1cc(NC(=O)c2nc(N3CCCC3)ncc2Cl)nc(C(C)C)n1 | 2.57
Cc1cccc(CN2CCc3[nH]nc(C(=O)N4CCOCC4)c3C2)n1 | 0.815
CCOCC1c2c(ncn2C(C)C)CCN1C(C)C (configuration not stated) | -7.26
NCCn1nc(C2CCN(Cc3ccccc3)C2)c2nccnc21 (configuration not stated) | 0.0423
O=C(NCc1ccccc1-n1cccn1)C1CC2(CCNCC2)CN1 (configuration not stated) | -1.74
